Measured values reported in patent publication US8268816B2, “Compounds for modulating integrin CD11b/CD18” (priority 2006, dated 2012).
pEC50: −log10 of the molar value.

Legend:
integrin CD11b/CD18 = molecular target: T1, integrin CD11b/CD18 (Homo sapiens, UniProt P05107+P11215); assay: no-wash cell adhesion assay for agonists: K562 CD11b/CD18 cells on fibrinogen in TBS++; type: cell-based
T1 construct: expressed in transfected cells
Description: Maxisorp microtiter plates (96- and 384-well) were coated with 1-20 μg/mL fibrinogen (Fg) ligand in PBS^++ overnight at 4° C. Subsequently, the Fg-coated wells were washed with TBS and non-specific sites were blocked by incubation with 2% non-fat milk in TBS at room temperature for 30 min. Next, the wells were washed three times with TBS and the coated microtiter plates were used in the HTS assays.
All the adhesion assays were carried out in the screening facility at the Institute of Chemistry and Cell Biology (ICCB), Harvard Medical School using the available small molecule libraries and equipment. Actimol Timtec 1 small molecule library (6,612 compounds) has been previously described (http://iccb.med.harvard.edu/screening/compound_libraries). The small molecule library is stocked in 384-well plates at −80° C. and as sealed plates, with each well's containing a unique compound dissolved in DMSO at approximately 5 mg/mL. […] Adherent cells were quantitated using either cell viability measuring reagents or automated imaging (see below).
For quantitation of adherent cells using a cell viability measuring kit (such as MTS-based CellTiter-One (Promega), CyQuant (Molecular Probes) or Luciferase-based CellTiter-Glo (Promega)), the non-adherent cells were removed by complete aspiration using an automated liquid handling machine (ELx405, Bio-Tek Instruments, VT) and the assay reagent added according to manufacturer's instructions. For automated imaging based quantitation of adherent cells, the non-adherent cells were fixed by adding a small volume of formaldehyde (1.1% v/v final concentration) and the plates were kept inverted for an additional 1 h. Upon cell fixation, the wells were washed with TBS using automated liquid handling machine (ELx405) and the adherent cells were fluorescently labeled with DAPI (0.5 μM final in TBS with 0.1% TritonX-100) and quantitated using automated microscope (see below).
CellWorx automated microscope (Cellomics, Pa.) was set at 0.3 s exposure using DAPI filter set to capture 1-3 images per well. […] Data output files were analyzed using MS Excel. […]

[1] = system: thioglycolate-induced peritonitis mouse model; assay: thioglycolate-induced peritonitis, neutrophil influx into the peritoneum; type: in vivo, C57BL6 mice; details: 4 μg i.v. about 5 min after i.p. 4% thioglycolate, lavage at 12 h, flow cytometry
Description: The wild-type (WT) C57BL6 mice of approximately six weeks of age were purchased from Charles River Labs (Boston, Mass.). Mice were injected intraperitoneally with 1 mL of 4% w/v sterile thioglycolate (TG) (Sigma, St. Louis, […].) in PBS. Control mice were injected with PBS alone. Approximately five minutes after TG injection, 4 μg each of compounds IMB-8, -6 or -11 were administered in 0.5 mL PBS through a tail vein injection. Twelve hours post-injection, the percentage of infiltrated neutrophils in the peritoneal lavage was determined using flow cytometry. Cells from the lavage fluid were labeled with FITC-labeled anti-mouse GR1 and PE-labeled anti-mouse CD11b antibodies (BD Pharmingen, Jan Jose, Calif.) and analyzed using FACS Calibur flow cytometer.

integrin CD11a/CD18 = molecular target: T2, integrin CD11a/CD18 (Homo sapiens, UniProt P05107+P20701); assay: adhesion of K562 CD11a/CD18 cells to ICAM1-Fc in TBS++; type: cell-based; details: dose-response, increasing amounts of small molecule
T2 construct: expressed in transfected cells; host or cells: K562 cells stably expressing CD11a/CD18
Description: Maxisorp microtiter plates (384-well) were coated with 1-20 μg/mL fibrinogen (Fg), 4 μg/mL iC3b or 0.375 μg/mL ICAM1-Fc ligands in PBS^++ overnight at 4° C.
For the adhesion assay in 384-well plates, the K562 cells were washed with TBS and cells (30,000/well) were transferred to the ligand-coated wells (Fg for CD11b/CD18 and ICAM1-Fc (R&D Systems, Minneapolis, Minn.) for CD11a/CD18) of microtiter plates in the assay buffer (TBS containing 1 mM each of Ca^2+ and Mg^2+ (TBS^++). Compounds were transferred to each well and the assay plates were incubated at 37° C. in the presence of small molecule compounds and were incubated with small molecules for 30 min. In order to dislodge the non-adherent cell, the assay plates were gently inverted and kept in the inverted position for 20 min at room temperature. Adherent cells were quantified using either cell viability measuring reagents or automated imaging (see below).

T1 sequence (P05107 23-769, other chains not shown): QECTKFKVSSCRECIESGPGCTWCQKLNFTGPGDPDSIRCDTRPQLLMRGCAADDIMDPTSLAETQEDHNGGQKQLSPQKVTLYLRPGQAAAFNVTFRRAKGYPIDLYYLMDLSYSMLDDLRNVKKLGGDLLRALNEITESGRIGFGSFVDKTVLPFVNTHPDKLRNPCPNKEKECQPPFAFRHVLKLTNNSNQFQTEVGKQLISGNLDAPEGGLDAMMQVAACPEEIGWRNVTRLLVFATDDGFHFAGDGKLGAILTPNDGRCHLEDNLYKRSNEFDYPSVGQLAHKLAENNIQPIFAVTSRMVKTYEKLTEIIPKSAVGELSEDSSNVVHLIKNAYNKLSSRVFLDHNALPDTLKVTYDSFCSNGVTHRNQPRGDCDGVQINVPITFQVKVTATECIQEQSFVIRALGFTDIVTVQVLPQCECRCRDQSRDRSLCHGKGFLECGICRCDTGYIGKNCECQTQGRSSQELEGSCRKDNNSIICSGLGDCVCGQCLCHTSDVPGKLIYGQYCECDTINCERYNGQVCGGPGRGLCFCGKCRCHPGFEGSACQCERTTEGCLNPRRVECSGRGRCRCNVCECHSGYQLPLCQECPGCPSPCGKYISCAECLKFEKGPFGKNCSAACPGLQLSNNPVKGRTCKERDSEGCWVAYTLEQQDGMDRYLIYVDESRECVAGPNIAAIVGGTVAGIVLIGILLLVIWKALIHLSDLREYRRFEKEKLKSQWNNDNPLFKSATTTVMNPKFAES
T2 sequence (P20701 26-1170): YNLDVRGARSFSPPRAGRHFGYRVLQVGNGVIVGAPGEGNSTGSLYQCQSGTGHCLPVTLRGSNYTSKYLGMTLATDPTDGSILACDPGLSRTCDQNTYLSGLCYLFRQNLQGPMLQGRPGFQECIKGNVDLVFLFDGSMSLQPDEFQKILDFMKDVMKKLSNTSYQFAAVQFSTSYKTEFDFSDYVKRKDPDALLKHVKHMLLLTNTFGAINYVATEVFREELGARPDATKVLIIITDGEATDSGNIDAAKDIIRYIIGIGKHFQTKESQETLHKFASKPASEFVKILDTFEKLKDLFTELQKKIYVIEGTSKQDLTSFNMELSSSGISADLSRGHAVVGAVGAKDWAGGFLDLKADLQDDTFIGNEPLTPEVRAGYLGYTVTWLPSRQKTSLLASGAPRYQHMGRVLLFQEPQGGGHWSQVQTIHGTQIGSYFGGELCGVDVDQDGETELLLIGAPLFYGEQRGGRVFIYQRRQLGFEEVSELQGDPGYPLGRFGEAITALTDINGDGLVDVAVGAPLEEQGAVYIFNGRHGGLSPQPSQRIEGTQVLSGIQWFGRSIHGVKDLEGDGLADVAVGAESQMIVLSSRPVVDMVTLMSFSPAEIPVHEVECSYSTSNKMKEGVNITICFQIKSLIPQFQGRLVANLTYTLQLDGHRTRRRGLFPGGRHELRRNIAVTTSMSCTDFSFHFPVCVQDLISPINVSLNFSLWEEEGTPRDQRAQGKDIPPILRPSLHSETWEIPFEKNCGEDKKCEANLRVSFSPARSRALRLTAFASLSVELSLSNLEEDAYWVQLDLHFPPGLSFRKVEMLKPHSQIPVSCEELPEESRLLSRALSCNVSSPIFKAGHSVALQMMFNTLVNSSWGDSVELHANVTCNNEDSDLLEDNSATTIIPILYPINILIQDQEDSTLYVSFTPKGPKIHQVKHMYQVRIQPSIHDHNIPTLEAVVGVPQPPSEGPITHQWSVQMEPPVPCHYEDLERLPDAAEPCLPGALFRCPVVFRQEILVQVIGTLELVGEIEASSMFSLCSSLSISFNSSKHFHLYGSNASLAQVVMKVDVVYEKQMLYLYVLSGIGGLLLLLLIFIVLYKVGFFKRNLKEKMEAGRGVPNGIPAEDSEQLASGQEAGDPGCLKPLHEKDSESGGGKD
T2 sequence (P05107 23-769): as the sequence (P05107 23-769, other chains not shown) above

Structure (SMILES): N=C1SC(=Cc2ccco2)C(=O)N1c1nccs1 [Compound 9]
- pEC50 (integrin CD11b/CD18; secondary screen, read-out: EC50, concentration required for half-maximal increase in cell-adhesion): ~5.17

Structure (SMILES): O=C1CSC(NC(=O)N2c3ccccc3Sc3ccccc32)=N1 [Compound 11]
- neutrophil influx into the peritoneum due to TG injection [1]: reduce leukocyte recruitment
- neutrophil influx into the peritoneum due to TG injection ([1]; listed as compound 11): remarkable decrease
- selectivity for integrin CD11b/CD18 over integrin CD11a/CD18 in cell adhesion (integrin CD11b/CD18; K562 CD11b/CD18 on fibrinogen versus K562 CD11a/CD18 on ICAM1): selectively increased adhesion

Structure (SMILES): Cc1ccccc1N1C(=O)/C(=C/C=C/c2ccccc2)SC1=S [IMB-10, reference compound]
- adhesion of K562 cells stably expressing integrin CD11b/CD18 to fibrinogen (integrin CD11b/CD18; dose-response, increasing amounts of small molecule, TBS++): increased equally well the adhesion
- adhesion of K562 cells stably expressing integrin CD11a/CD18 to ICAM1 (integrin CD11a/CD18): increased equally well the adhesion
